This note sets out measurements from patent publication US12319651B2, “Crystalline forms and methods of producing crystalline forms of a compound” (priority 2019, dated 2025).

What is called solubility is the dissolved amount per volume that the medium holds.

SMILES strings stand for the structures.

The nature of data set [1]: Dynamic vapor sorption (moisture sorption/desorption). The data set is classed as physicochemical. The following applies: for Hygroscopicity: automated vapor sorption/desorption analysis, 5% to 95% RH. The method, then:
Moisture sorption/desorption data were collected on a VTI SGA-100 Vapor Sorption Analyzer. Sorption and desorption data were collected over a range of 5% to 95% relative humidity (RH) at 10% RH intervals under an nitrogen purge. Samples were not dried prior to analysis. Equilibrium criteria used for analysis were less than 0.0100% weight change in 5 minutes, with a maximum equilibration time of 3 hours if the weight criterion was not met. Data were not corrected for the initial moisture content of the samples. NaCl and PVP were used as calibration standards.

The format of data set [2] is physicochemical. As to the method:
The starting crystal Form was heated to 120° C. and the resulting material was analyzed by XRPD.
The XRPD results of crystalline Form E (FIG. 2) show good crystallinity. […] (FIG. 6). […] The XRPD results of crystalline Forms E+C (FIG. 3) show good crystallinity. Differential scanning calorimetry results for crystalline Forms E+C were very similar to that of Form E (FIG. 7). […] Form conversion was complete by 125° C. in the solid state.

Data set [3] is described as follows: Interconversion slurries of crystal forms. The following applies: for Relationship of forms C and E: from DSC data and interconversion results, transition temperature less than ambient. The data set is classed as physicochemical. The text has this: Crystal forms of the compound of Formula (I) were weighed out in approximately equal amounts and combined as desired. Aliquots of saturated solutions of compound in various solvents were filtered (0.2-μm nylon filter) into vials containing solid mixtures such that undissolved solids were present. The mixture was then agitated by either loading it onto an orbit shaker or adding a cross-shaped stir bar and allowing the mixture to stir in a sealed vial at stated conditions. The solids were isolated by vacuum filtration and analyzed.
Interconversion slurries were conducted as individual pairings between the E+C mixture and Form E material and between forms C and E. The experiments were carried out in cyclohexane and acetone:water 20:80, at room temperature for 7 days. Additional slurries were set up in toluene at room temperature for 1 day and at approximately 5° C. for 2 days.
A second set of interconversion slurries was conducted in which all unique patterns were slurried together at 50° C. in cyclohexane and ethanol:water 50:50. […]

Data set [4] is described as follows: Measurement of the approximate solubility (visual dissolution in solvent aliquots). As to conditions: thermodynamic from solid. Type of data set: physicochemical. The method, then: Aliquots of various solvents were added to measured amounts of compound with agitation (typically sonication) at ambient or elevated temperatures until complete dissolution was achieved, as judged by visual observation.
The approximate solubility at ambient temperature must be known in order to carry out systematic crystallization experiments.

Consider `N#Cc1ccc(N2CCC[C@@H]2C(O)C(F)(F)F)cc1C(F)(F)F` (stereo partly drawn) [Form B], for which, in data set [1], the Hydrate formation entry is recorded as “does not show any evidence of hydrate formation” and the Stability over humidity result is “stable over a wide range of humidity”. In addition, the “Temperature of likely form transformation upon heating” value in data set [2] is “approximately 150 °C”.
As to `N#Cc1ccc(N2CCC[C@@H]2C(O)C(F)(F)F)cc1C(F)(F)F` (stereo partly drawn) [Form E], in data set [1], the Stability over humidity entry is listed as “stable over a wide range of humidity” and the Hygroscopicity result is “slightly hygroscopic”. The “Relationship of forms C and E” value in data set [3] was “enantiotropic”. Moreover, the “Most stable form in slurry” value in data set [3] (toluene at approximately 5° C.) is given as “most stable form”. Further, the “Temperature at which form conversion was complete” value in data set [2] (VT-XRPD, solid state) was not above 125 °C. In addition, the “Temperature of conversion to Form C upon heating” value in data set [2] (VT-XRPD, mixture of forms E+C observed at this temperature) worked out at 115 °C.
Regarding `N#Cc1ccc(N2CCC[C@@H]2C(O)C(F)(F)F)cc1C(F)(F)F` (stereo partly drawn) [Form E + C], the Hygroscopicity result in data set [1] (listed as E+C mixture) is reported as “slightly hygroscopic”. Moreover, the “XRPD Result after heating” value in data set [2] (heated to 120° C.) is on record as “Form C”.
Consider `N#Cc1ccc(N2CCC[C@@H]2C(O)C(F)(F)F)cc1C(F)(F)F` (stereo partly drawn) [Compound of Formula (I)], for which the solubility is less than 2 mg/mL in data set [4] (aqueous with cosolvent or surfactant or cyclodextrin, ambient, 1,4-dioxane/water 20:80 v/v); less than 2 mg/mL in data set [4] (aqueous with cosolvent or surfactant or cyclodextrin, ambient, 1-propanol/water 20:80 v/v); less than 2 mg/mL in data set [4] (aqueous with cosolvent or surfactant or cyclodextrin, ambient, 2,2,2-trifluoroethanol/water 20:80 v/v); less than 2 mg/mL in data set [4] (aqueous with cosolvent or surfactant or cyclodextrin, ambient, acetone/water 20:80 v/v); 9 mg/mL in data set [4] (aqueous with cosolvent or surfactant or cyclodextrin, ambient, acetone/water 50:50 v/v); less than 2 mg/mL in data set [4] (aqueous with cosolvent or surfactant or cyclodextrin, ambient, acetonitrile/water 20:80 v/v). In addition, the solubility in data set [4] (aqueous with cosolvent or surfactant or cyclodextrin, ambient, ethanol/water 20:80 v/v) is less than 2 mg/mL; in data set [4] (aqueous with cosolvent or surfactant or cyclodextrin, ambient, hexafluoroisopropanol/water 20:80 v/v) it was less than 2 mg/mL; in data set [4] (aqueous with cosolvent or surfactant or cyclodextrin, ambient, isopropanol/water 20:80 v/v), less than 2 mg/mL; in data set [4] (aqueous with cosolvent or surfactant or cyclodextrin, ambient, methanol/water 20:80 v/v), less than 2 mg/mL; in data set [4] (aqueous with cosolvent or surfactant or cyclodextrin, ambient, tetrahydrofuran/water 20:80 v/v) it was less than 2 mg/mL; in data set [4] (organic solvent or mixture, ambient, 1,4-dioxane), more than 111 mg/mL. Also, the solubility in data set [4] (organic solvent or mixture, ambient, 1-butanol) is 37 mg/mL; in data set [4] (organic solvent or mixture, ambient, 1-propanol), 55 mg/mL; in data set [4] (organic solvent or mixture, ambient, 2,2,2-trifluoroethanol), 51 mg/mL; in data set [4] (organic solvent or mixture, ambient, 2-butanone), more than 107 mg/mL; in data set [4] (organic solvent or mixture, ambient, acetone), more than 112 mg/mL; in data set [4] (organic solvent or mixture, ambient, acetonitrile) it was more than 110 mg/mL. Further, the solubility was 37 mg/mL in data set [4] (organic solvent or mixture, ambient, chloroform); less than 2 mg/mL in data set [4] (organic solvent or mixture, ambient, cyclohexane); 37 mg/mL in data set [4] (organic solvent or mixture, ambient, dichloromethane); 58 mg/mL in data set [4] (organic solvent or mixture, ambient, diethyl ether); more than 104 mg/mL in data set [4] (organic solvent or mixture, ambient, ethanol); more than 108 mg/mL in data set [4] (organic solvent or mixture, ambient, ethyl acetate). Moreover, the solubility was more than 106 mg/mL in data set [4] (organic solvent or mixture, ambient, hexafluoroisopropanol); less than 2 mg/mL in data set [4] (organic solvent or mixture, ambient, hexanes); more than 102 mg/mL in data set [4] (organic solvent or mixture, ambient, isopropanol); 55 mg/mL in data set [4] (organic solvent or mixture, ambient, isopropyl ether); more than 116 mg/mL in data set [4] (organic solvent or mixture, ambient, methanol); more than 100 mg/mL in data set [4] (organic solvent or mixture, ambient, methyl isobutyl ketone). For the same molecule, the solubility in data set [4] (organic solvent or mixture, ambient, tert-butyl methyl ether) was more than 111 mg/mL; in data set [4] (organic solvent or mixture, ambient, tetrahydrofuran), more than 102 mg/mL; in data set [4] (organic solvent or mixture, ambient, toluene), 15 mg/mL; in data set [4] (ambient, water), less than 2 mg/mL.
On to `N#Cc1ccc(N2CCC[C@@H]2C(O)C(F)(F)F)cc1C(F)(F)F` (stereo partly drawn) [Form C], for which, in data set [1], the Hydrate formation result is listed as “does not show any evidence of hydrate formation”, the Stability over humidity entry is on record as “stable over a wide range of humidity” and the Hygroscopicity entry is “non-hygroscopic”. In addition, the Water uptake result in data set [1] (DVS, FIG. 9) is given as “negligible water uptake”. Besides, the “Most stable form in slurry of all forms” value in data set [3] (50° C., 7 days, cyclohexane and ethanol:water 50:50) was “most stable form”. Moreover, the “Thermodynamic stability among crystal forms” value in data set [3] (cyclohexane, acetone:water 20:80, toluene at ambient temperature, ethanol:water 50:50 at approximately 50° C.) is reported as “most thermodynamically stable form”. The “Relationship of forms C and E” value in data set [3] is given as “enantiotropic”. In addition, the “Form stability upon heating and cooling” value in data set [2] (heating to 150° C. and cooling down to ambient temperature) is recorded as “remained stable”. Moreover, the “Relative thermodynamic stability from heating study” value in data set [2] (starting crystal form heated to 120° C., XRPD) is listed as “thermodynamically more stable crystal form”.
